≈ marks a conversion by molar mass, not a printed value.
The compounds below were run on Pseudomonas aeruginosa (assay: Antibacterial activity against Pseudomonas aeruginosa ATCC 27853 assessed as growth inhibition).
Assay type: functional

SMILES	MIC [µg/mL]
CC(C)C[C@@H]1NC(=O)[C@H](Cc2c[nH]c3ccccc23)NC(=O)[C@H](C)NC(=O)[C@@H]2CCCN2C(=O)[C@H]2CCCN2C(=O)[C@H](CCCCN)NC(=O)[C@H](C)NC(=O)[C@H](CCCCN)NC(=O)[C@H](CCCCN)NC(=O)[C@H](Cc2c[nH]c3ccccc23)NC(=O)[C@H](CCCNC(=N)N)NC(=O)[C@H](CCCNC(=N)N)NC(=O)[C@H](CCCCN)NC(=O)[C@H](CCCCN)NC1=O	0.01 (≈ 0.00563 µM)
CC(C)C[C@@H]1NC(=O)[C@H](Cc2ccccc2)NC(=O)[C@H]([C@@H](C)O)NC(=O)[C@@H]2CCCN2C(=O)[C@H]2CCCN2C(=O)[C@H](CCCCN)NC(=O)[C@H](C)NC(=O)[C@H](CCCCN)NC(=O)[C@H](CCCCN)NC(=O)[C@H](Cc2c[nH]c3ccccc23)NC(=O)[C@H](CCCNC(=N)N)NC(=O)[C@H](CCCNC(=N)N)NC(=O)[C@H](CCCCN)NC(=O)[C@H](CCCCN)NC1=O	0.06 (≈ 0.034 µM)
CC(C)C[C@@H]1NC(=O)[C@H](Cc2ccc(O)cc2)NC(=O)[C@H]([C@@H](C)O)NC(=O)[C@@H]2CCCN2C(=O)[C@H]2CCCN2C(=O)[C@H](CCCCN)NC(=O)[C@H](C)NC(=O)[C@H](CCCCN)NC(=O)[C@H](CCCCN)NC(=O)[C@H](Cc2c[nH]c3ccccc23)NC(=O)[C@H](CCCNC(=N)N)NC(=O)[C@H](CCCNC(=N)N)NC(=O)[C@H](CCCCN)NC(=O)[C@H](CCCCN)NC1=O	0.06 (≈ 0.0337 µM)
C[C@@H]1NC(=O)[C@H](CCCCN)NC(=O)[C@H](CCCCN)NC(=O)[C@H](Cc2c[nH]c3ccccc23)NC(=O)[C@H](CCCNC(=N)N)NC(=O)[C@H](CCCNC(=N)N)NC(=O)[C@H](CCCCN)NC(=O)[C@H](CCCCN)NC(=O)[C@H](C)NC(=O)[C@H](Cc2c[nH]c3ccccc23)NC(=O)[C@H]([C@@H](C)O)NC(=O)[C@@H]2CCCN2C(=O)[C@H]2CCCN2C(=O)[C@H](CCCCN)NC1=O	0.1 (≈ 0.0567 µM)
CC(C)C[C@@H]1NC(=O)[C@H](Cc2c[nH]c3ccccc23)NC(=O)[C@H]([C@@H](C)O)NC(=O)[C@@H]2CCCN2C(=O)[C@H]2CCCN2C(=O)[C@H](CCCCN)NC(=O)[C@H](C)NC(=O)[C@H](CCCCN)NC(=O)[C@H](CCCCN)NC(=O)[C@H](Cc2ccccc2)NC(=O)[C@H](CCCNC(=N)N)NC(=O)[C@H](CCCNC(=N)N)NC(=O)[C@H](CCCCN)NC(=O)[C@H](CCCCN)NC1=O	0.1 (≈ 0.0566 µM)
CC(C)C[C@@H]1NC(=O)[C@H](CCCNC(=N)N)NC(=O)[C@H](CCCNC(=N)N)NC(=O)[C@H](CCCCN)NC(=O)[C@H](CCCCN)NC(=O)[C@H](CC(C)C)NC(=O)[C@H](Cc2c[nH]c3ccccc23)NC(=O)[C@H]([C@@H](C)O)NC(=O)[C@@H]2CCCN2C(=O)[C@H]2CCCN2C(=O)[C@H](CCCCN)NC(=O)[C@H](C)NC(=O)[C@H](CCCCN)NC(=O)[C@H](CCCCN)NC1=O	0.1 (≈ 0.0577 µM)
CC(C)C[C@@H]1NC(=O)[C@H](Cc2c[nH]c3ccccc23)NC(=O)[C@H]([C@@H](C)O)NC(=O)[C@@H]2CCCN2C(=O)[C@H]2CCCN2C(=O)[C@H](CCCCN)NC(=O)[C@H](C)NC(=O)[C@H](CCCCN)NC(=O)[C@H](CCCCN)NC(=O)[C@H](C)NC(=O)[C@H](CCCNC(=N)N)NC(=O)[C@H](CCCNC(=N)N)NC(=O)[C@H](CCCCN)NC(=O)[C@H](CCCCN)NC1=O	> 16
CC(C)C[C@@H]1NC(=O)[C@H](CC(C)C)NC(=O)[C@H]([C@@H](C)O)NC(=O)[C@@H]2CCCN2C(=O)[C@H]2CCCN2C(=O)[C@H](CCCCN)NC(=O)[C@H](C)NC(=O)[C@H](CCCCN)NC(=O)[C@H](CCCCN)NC(=O)[C@H](Cc2c[nH]c3ccccc23)NC(=O)[C@H](CCCNC(=N)N)NC(=O)[C@H](CCCNC(=N)N)NC(=O)[C@H](CCCCN)NC(=O)[C@H](CCCCN)NC1=O	1 (≈ 0.577 µM)
CC(C)C[C@@H]1NC(=O)[C@H](Cc2c[nH]c3ccccc23)NC(=O)[C@H]([C@@H](C)O)NC(=O)[C@@H]2CCCN2C(=O)[C@H]2CCCN2C(=O)[C@H](CCCCN)NC(=O)[C@H](C)NC(=O)[C@H](CCCCN)NC(=O)[C@H](CCCCN)NC(=O)[C@H](Cc2c[nH]c3ccccc23)NC(=O)[C@H](CCCNC(=N)N)NC(=O)[C@H](CCCNC(=N)N)NC(=O)[C@H](C)NC(=O)[C@H](CCCCN)NC1=O	0.1 (≈ 0.0572 µM)
CC(C)C[C@@H]1NC(=O)[C@H](Cc2c[nH]c3ccccc23)NC(=O)[C@H]([C@@H](C)O)NC(=O)[C@@H]2CCCN2C(=O)[C@H]2CCCN2C(=O)[C@H](CCCCN)NC(=O)[C@H](C)NC(=O)[C@H](CCCCN)NC(=O)[C@H](C)NC(=O)[C@H](Cc2c[nH]c3ccccc23)NC(=O)[C@H](CCCNC(=N)N)NC(=O)[C@H](CCCNC(=N)N)NC(=O)[C@H](CCCCN)NC(=O)[C@H](CCCCN)NC1=O	0.06 (≈ 0.0343 µM)
CC(C)C[C@@H]1NC(=O)[C@H](Cc2c[nH]c3ccccc23)NC(=O)[C@H]([C@@H](C)O)NC(=O)[C@@H]2CCCN2C(=O)[C@H]2CCCN2C(=O)[C@H](CCCCN)NC(=O)[C@H](C)NC(=O)[C@H](CCN)NC(=O)[C@H](CCCN)NC(=O)[C@H](Cc2c[nH]c3ccccc23)NC(=O)[C@H](CCCNC(=N)N)NC(=O)[C@@H](CCCCN)NC(=O)[C@H](CCCN)NC(=O)[C@H](CCN)NC1=O	0.01 (≈ 0.00591 µM)
CC(C)C[C@@H]1NC(=O)[C@H](Cc2c[nH]c3ccccc23)NC(=O)[C@H]([C@@H](C)O)NC(=O)[C@H]2CCCN2C(=O)[C@@H]2CCCN2C(=O)[C@H](CCCCN)NC(=O)[C@H](C)NC(=O)[C@H](CCN)NC(=O)[C@H](CCCN)NC(=O)[C@H](Cc2c[nH]c3ccccc23)NC(=O)[C@H](CCCNC(=N)N)NC(=O)[C@@H](CCCCN)NC(=O)[C@H](CCCN)NC(=O)[C@H](CCN)NC1=O	≥ 32
CC(C)C[C@@H]1NC(=O)[C@H](Cc2c[nH]c3ccccc23)NC(=O)[C@H]([C@@H](C)O)NC(=O)[C@@H]2CCCN2C(=O)[C@H]2CCCN2C(=O)[C@H](CCCCN)NC(=O)[C@H](C)NC(=O)[C@H](CCCCN)NC(=O)[C@H](CCCCN)NC(=O)[C@H](Cc2c[nH]c3ccccc23)NC(=O)[C@H](CCCNC(=N)N)NC(=O)[C@H](CCCNC(=N)N)NC(=O)[C@H](CCCCN)NC(=O)[C@H](CCCCN)NC1=O	0.01 (≈ 0.00554 µM)
CC(C)C[C@@H]1NC(=O)[C@H](Cc2c[nH]c3ccccc23)NC(=O)[C@H]([C@@H](C)O)NC(=O)[C@@H]2CCCN2C(=O)[C@H]2CCCN2C(=O)[C@H](C)NC(=O)[C@H](C)NC(=O)[C@H](CCCCN)NC(=O)[C@H](CCCCN)NC(=O)[C@H](Cc2c[nH]c3ccccc23)NC(=O)[C@H](CCCNC(=N)N)NC(=O)[C@H](CCCNC(=N)N)NC(=O)[C@H](CCCCN)NC(=O)[C@H](CCCCN)NC1=O	0.03 (≈ 0.0172 µM)
CC(C)C[C@@H]1NC(=O)[C@H](Cc2c[nH]c3ccccc23)NC(=O)[C@H]([C@@H](C)O)NC(=O)[C@@H]2CCCN2C(=O)[C@H]2CCCN2C(=O)[C@H](CCCCN)NC(=O)[C@H](C)NC(=O)[C@H](C)NC(=O)[C@H](CCCCN)NC(=O)[C@H](Cc2c[nH]c3ccccc23)NC(=O)[C@H](CCCNC(=N)N)NC(=O)[C@H](CCCNC(=N)N)NC(=O)[C@H](CCCCN)NC(=O)[C@H](CCCCN)NC1=O	0.06 (≈ 0.0343 µM)
CC(C)C[C@@H]1NC(=O)[C@H](Cc2c[nH]c3ccccc23)NC(=O)[C@H]([C@@H](C)O)NC(=O)[C@@H]2CCCN2C(=O)[C@H]2CCCN2C(=O)[C@H](CCCCN)NC(=O)[C@H](C)NC(=O)[C@H](CCCCN)NC(=O)[C@H](CCCCN)NC(=O)[C@H](Cc2ccc(O)cc2)NC(=O)[C@H](CCCNC(=N)N)NC(=O)[C@H](CCCNC(=N)N)NC(=O)[C@H](CCCCN)NC(=O)[C@H](CCCCN)NC1=O	0.3 (≈ 0.168 µM)
CC(C)C[C@@H]1NC(=O)[C@H](Cc2c[nH]c3ccccc23)NC(=O)[C@H]([C@@H](C)O)NC(=O)[C@@H]2CCCN2C(=O)[C@H]2CCCN2C(=O)[C@H](CCCCN)NC(=O)[C@H](C)NC(=O)[C@H](CCCCN)NC(=O)[C@H](CCCCN)NC(=O)[C@H](Cc2c[nH]c3ccccc23)NC(=O)[C@H](C)NC(=O)[C@H](CCCNC(=N)N)NC(=O)[C@H](CCCCN)NC(=O)[C@H](CCCCN)NC1=O	0.06 (≈ 0.0349 µM)
CC(C)C[C@@H]1NC(=O)[C@H](Cc2c[nH]c3ccccc23)NC(=O)[C@H]([C@@H](C)O)NC(=O)[C@@H]2CCCN2C(=O)[C@H]2CCCN2C(=O)[C@H](CCCCN)NC(=O)[C@H](C)NC(=O)[C@H](CCCCN)NC(=O)[C@H](CCCCN)NC(=O)[C@H](Cc2c[nH]c3ccccc23)NC(=O)[C@H](CCCNC(=N)N)NC(=O)[C@H](CCCNC(=N)N)NC(=O)[C@H](CCCCN)NC(=O)[C@H](C)NC1=O	0.05 (≈ 0.0286 µM)
CC(C)C[C@@H]1NC(=O)[C@H](C)NC(=O)[C@H]([C@@H](C)O)NC(=O)[C@@H]2CCCN2C(=O)[C@H]2CCCN2C(=O)[C@H](CCCCN)NC(=O)[C@H](C)NC(=O)[C@H](CCCCN)NC(=O)[C@H](CCCCN)NC(=O)[C@H](Cc2c[nH]c3ccccc23)NC(=O)[C@H](CCCNC(=N)N)NC(=O)[C@H](CCCNC(=N)N)NC(=O)[C@H](CCCCN)NC(=O)[C@H](CCCCN)NC1=O	> 16
CC(C)C[C@@H]1NC(=O)[C@H](Cc2c[nH]c3ccccc23)NC(=O)[C@H]([C@@H](C)O)NC(=O)[C@@H]2CCCN2C(=O)[C@H]2CCCN2C(=O)[C@H](CCCCN)NC(=O)[C@H](C)NC(=O)[C@H](CCCCN)NC(=O)[C@H](CCCCN)NC(=O)[C@H](Cc2c[nH]c3ccccc23)NC(=O)[C@H](CCCNC(=N)N)NC(=O)[C@H](C)NC(=O)[C@H](CCCCN)NC(=O)[C@H](CCCCN)NC1=O	0.03 (≈ 0.0174 µM)

From ChEMBL document CHEMBL2417492, “Structural studies of β-hairpin peptidomimetic antibiotics that target LptD in Pseudomonas sp” (2013)
